This data set is described as follows: solvent given as SMILES.

SMILES strings stand for the structures.

`CC1=CC(C)=[N+]2C1=Cc1c3ccccc3c(C#Cc3ccc(F)cc3)n1[B-]2(F)F` returned an absorption maximum (in CCCCCC) of 609 nm, an absorption maximum (in CCCCCCCCO) of 613 nm, an absorption maximum (in CCOC(C)=O) of 607 nm and an absorption maximum (in CN(C)C=O) of 612 nm.

The compound `C[Si](C)(C)C#C[Si](c1c2ccccc2cc2ccccc12)(c1c2ccccc2cc2ccccc12)c1c2ccccc2cc2ccccc12` displayed an absorption maximum (in ClC(Cl)Cl) of 404 nm.

As for `O=c1c2ccccc2c2c3c(cccc13)c(-c1ccccc1)c1c3cccc4cccc(c43)c12`, the absorption maximum runs as follows: (in CC#N) 462 nm; (in CO) 461 nm.

As for `CCN(CC)c1ccc2cc(-c3cn4cc(C)ccc4n3)c(=O)oc2c1`, for the setting “in ClC(Cl)Cl”, the absorption maximum is given as 424 nm.

For the compound `COc1cc(C=O)cc(-c2[nH]c(=O)n3c2-c2ccccc2C3=O)c1O`, the absorption maximum reads like this: (in CC#N) 390 nm; (in CO) 398 nm; (in ClCCl) 390 nm.

Consider `CNc1cccc2c1C(=O)c1ccccc1C2=O`, for which the absorption maximum was 488 nm (in C1CCC2CCCCC2C1); 488 nm (in C1CCCCC1); 489 nm (in CC1CCCCC1); 501 nm (in CC#N); 487 nm (in CCC(C)CC); 487 nm (in CCCCCC). The compound further displayed an absorption maximum (in CCOC(C)=O) of 497.5 nm.

Where the note is “in ClC(Cl)Cl”, `CCOC(=O)/C=C/C1=C(c2ccc(C)cc2)C2=Nc3c(-c4ccc(C)cc4)c(-c4ccc(OC)cc4)c(-c4ccc(C)cc4)n3[B-](F)(F)[N+]2=C1c1ccc(C)cc1` displayed an absorption maximum of 673 nm.

For `CCN(CC)c1ccc(/C=N/c2cc3nc4ccccc4nc3cc2/N=C/c2ccc(N(CC)CC)cc2O)c(O)c1`, the absorption maximum is, setting by setting: (in CC#N) 451 nm; (in CN(C)C=O) 488 nm; (in ClCCl) 476 nm.

On to `Cc1cc(=O)oc2cc3c4ccccc4c4ccccc4c3cc12`, for which the absorption maximum was 378 nm (in C1CCOC1); 375 nm (in CC#N); 377 nm (in CO); 378 nm (in CS(C)=O); 381 nm (in Cc1ccccc1); 362 nm (in ClC(Cl)Cl).

In turn, `N#CC(/N=C/c1c(O)ccc2ccccc12)=C(C#N)/N=C/c1c(O)ccc2ccccc12` yielded an absorption maximum (in CC#N) of 520 nm.

`COc1cccc(OC)c1C1=C2C(C)=CC(C)=[N+]2[B-](F)(F)n2c(C)cc(C)c21`: the absorption maximum runs as follows: (in C1CCOC1) 506 nm; (in CC#N) 500 nm; (in CC(=O)C(C)(C)C) 505 nm; (in CC(C)=O) 503 nm; (in CCCCCC) 507 nm; (in CCOC(C)=O) 504 nm. The absorption maximum (in CO) was 503 nm.

Turning to `CCN(CC)c1ccc2nc3c4ccccc4c(=O)cc-3oc2c1`, the absorption maximum by setting is: (in C1COCCO1) 519 nm; (in CC#N) 535 nm; (in CC(C)=O) 533 nm; (in CCCCCC) 508 nm; (in CCO) 549 nm; (in CCOC(C)=O) 524 nm. The absorption maximum reads like this: (in CO) 553 nm; (in CS(C)=O) 552 nm; (in Cc1ccccc1) 524 nm; (in ClCCl) 539 nm.

Compound `CN1c2ccc3c(c2-c2ccccc2S1(=O)=O)-c1ccccc1S(=O)(=O)N3C` had an absorption maximum (in ClCCl) of 350 nm.

`S=P1(c2ccccc2)c2cccc3ccc4ccc1n4c23` (centres undefined) registered an absorption maximum (in ClCCl) of 407 nm.

In turn, `Cc1cccc(C)c1N1C(c2ccccc2)=Cc2cccc[n+]2[B-]1(F)F` gave an absorption maximum (in ClCCl) of 397 nm.

`C(=N\c1ccc(-c2cn3nc(-c4cccs4)sc3n2)cc1)/c1ccc(N(c2ccccc2)c2ccccc2)cc1` yielded an absorption maximum (in ClC(Cl)Cl) of 390 nm.

Consider `c1ccc2[nH]ncc2c1`, for which the absorption maximum (in C1CCCCC1) amounted to 294 nm.

As to `CCCCCCc1ccc2c3c(ccc2c1)O[B-](F)(F)[N+](c1ccc([N+]2=Cc4c(ccc5cc(CCCCCC)ccc45)O[B-]2(F)F)cc1)=C3`, the absorption maximum is, setting by setting: (in C1CCOC1) 425 nm; (in CC#N) 422 nm; (in Cc1ccccc1) 436 nm; (in ClCCl) 430 nm.

Take `COc1ccc(C#Cc2c3ccccc3c3n2[B-](F)(F)[N+]2=C(C)C=C(C)C2=C3)cc1`: the absorption maximum runs as follows: (in CCCCCC) 611 nm; (in CCCCCCCCO) 615 nm; (in CCOC(C)=O) 610 nm; (in CN(C)C=O) 615 nm; (in ClCCl) 616 nm.

Take `COc1ccc2cc(C#N)c(=N)oc2c1`: the absorption maximum (in ClCCl) came to 358 nm.

For the compound `CC[n+]1c(C=C2C(=O)C(C=C3N(C)c4ccccc4C3(C)C)=C2[O-])[se]c2ccccc21`, the absorption maximum is, setting by setting: (in CO) 643 nm; (in ClC(Cl)Cl) 657 nm; (in ClCCl) 658 nm.

`CCN(CC)c1ccc2c(-c3ccccc3C(=O)O)c3c([o+]c2c1)/C(=C/c1ccc(N2CCCC2)s1)CCC3`: the absorption maximum (in ClCCl) is on record as 738 nm.

Consider `CC1(C)c2ccccc2N(c2ccc(-c3nc([C@]45CC6CC(C[C@@H](C6)C4)C5)nc([C@]45C[C@H]6C[C@@H](C[C@H](C6)C4)C5)n3)cc2)c2ccccc21`, for which the absorption maximum (in Cc1ccccc1) is 367.8 nm.

For `COc1ccc(-c2ncc3ccccn23)cc1`, the absorption maximum (in ClC(Cl)Cl) was determined as 306 nm.

Consider `CC1(C)C2=[N+](CCCCCC(=O)NCNC(=O)CCCCCN3/C(=C/C=C/C=C/C=C/2)C(C)(C)c2cc(S(=O)(=O)[O-])ccc23)c2ccc(S(=O)(=O)[O-])cc21`, for which, for the setting “in CO”, the absorption maximum worked out at 754 nm.

As to `Cc1ccc(/C(C#N)=C/c2cc(/C=C(\C#N)c3ccc(C)cc3)c(-c3ccc(N(c4ccccc4)c4ccccc4)cc3)cc2-c2ccc(N(c3ccccc3)c3ccccc3)cc2)cc1`, the absorption maximum reads like this: (in C1CCCCC1) 385 nm; (in C1CCOC1) 391 nm; (in CCCCCC) 385 nm; (in CCOC(C)=O) 393 nm; (in Cc1ccccc1) 391 nm; (in ClC(Cl)Cl) 385 nm. The compound also displayed an absorption maximum (in ClCCl) of 393 nm.

For `Cc1cc(N(C)C)ccc1C1=C2C=CC(=[N+](C)C)C=C2[Si](C)(C)c2cc(N(C)C)ccc21`, the absorption maximum (in O) is 646 nm.

Regarding `Cc1ccc(C2=C3C=C(I)C=[N+]3[B-](F)(F)n3c2cc(I)c3I)cc1`, the absorption maximum is recorded as 563.5 nm (in C1CCCCC1); 553 nm (in CC#N); 559 nm (in CCO); 556.5 nm (in CCOC(C)=O); 557.5 nm (in CO); 553 nm (in OCC(F)(F)F).

Consider `Cc1nc2c(ccc3c2sc(/C=C/C=C/c2ccc(N(C)C)cc2)[n+]3C)s1`, for which the absorption maximum is 574 nm (in CO) and 617 nm (in ClC(Cl)Cl).

As to `Clc1nc(Cl)nc(Nc2ccc3cc4ccccc4cc3c2)n1`, the absorption maximum runs as follows: (in C1COCCO1) 396 nm; (in CC#N) 398 nm; (in CCCCOCCCC) 395 nm; (in CCOC(C)=O) 394 nm.

With `Cc1ccc(-n2c(-c3ccc(C(F)(F)F)cc3)nc(-c3ccccc3O)c2-c2ccccc2O)cc1`, the absorption maximum reads like this: (in C1CCOC1) 314 nm; (in CC(C)O) 309 nm; (in CCCCCC) 314 nm; (in CO) 309 nm; (in CS(C)=O) 313 nm; (in ClCCl) 311 nm.

On to `CC(C)(C)c1ccc2c3c(c4ccc(C(C)(C)C)cc4c2c1)=[N+]1C(=C(c2ccccc2)c2cc4c5ccc(C(C)(C)C)cc5c5cc(C(C)(C)C)ccc5c4n2[B-]1(F)F)C=3`, for which the absorption maximum reads like this: (in C1CCCCC1) 693 nm; (in C1CCOC1) 689 nm; (in CC#N) 683 nm; (in Cc1ccccc1) 694 nm; (in ClCCl) 691 nm.

For the compound `Cc1ccccc1C1=C2C=CC(=[N+](C)C)C=[C]2[Ge]([CH3])([CH3])[c]2cc(N(C)C)ccc21`, the absorption maximum (in O) was determined as 635 nm.

Regarding `CCCCCCCCN1c2ccc(C#Cc3ccc(F)cc3)cc2Sc2cc(C=O)ccc21`, the absorption maximum is listed as 378 nm (in C1CCOC1); 380.01 nm (in CC#N); 376 nm (in CCCCCC); 350 nm (in CO); 388 nm (in CS(C)=O); 381.99 nm (in Cc1ccccc1). In addition, the absorption maximum (in ClC(Cl)Cl) was 391.99 nm.

For the setting “in ClCCl”, `O=P(c1ccccc1)(c1ccccc1)c1cccc(-n2c(-c3ccccc3P(=O)(c3ccccc3)c3ccccc3)nc3ccccc32)c1` returned an absorption maximum of 300 nm.

Regarding `CCCCCCn1c2cc(/C=C(\C#N)c3cccs3)ccc2c2ccc(/C=C(\C#N)c3cccs3)cc21`, the absorption maximum (in ClC(Cl)Cl) is on record as 436.68 nm.

Turning to `COc1c2ccccc2c(OC)c2c1c1cc(F)ccc1n2C`, the absorption maximum reads like this: (in C1CCCCC1) 415 nm; (in CC#N) 417 nm; (in CO) 416 nm; (in ClCCl) 419 nm.

`CN(C)CCCN1c2ccccc2CCc2ccccc21` showed an absorption maximum (in CC#N) of 276 nm, an absorption maximum (in CO) of 274 nm and an absorption maximum (in O) of 275 nm.

Where the note is “in CN(C)C=O”, `C[Si](C)(C)O[Si]1(O[Si](C)(C)C)n2c3c4ccccc4c2/N=C2N=C(/N=c4/c5ccccc5/c(n41)=N/C1=NC(=N\3)/c3ccccc31)c1ccccc1\2` displayed an absorption maximum of 668 nm.

On to `CN(C)c1ccc(-c2ccc(-c3cc(N4CCCCC4)c(C#N)c4c3-c3ccccc3CC4)cc2)cc1`, for which the absorption maximum by setting is: (in C1CCCCC1) 353 nm; (in C1CCOC1) 342 nm; (in CN(C)C=O) 350 nm; (in CS(C)=O) 342 nm; (in Cc1ccccc1) 360 nm; (in ClC(Cl)Cl) 348 nm.

Compound `CC(=O)Nc1ccc2c(c1)c(=O)c1ccccc1n2CCCCCC(=O)O` registered an absorption maximum (in O) of 398 nm.

Source of the values: the Deep4Chem optical property database.
